Reference: patent EP2889299A1, “Fluorescent red emitting functionalizable pH probes” (Paris Sciences et Lettres - Quartier Latin, priority 2013, dated 2015)
Read-outs that look alike come from different tables or passages of the source.

What was measured:
[1] = pKa calculation from fluorescence intensity versus pH (Hill equation fit); type: physicochemical; settings: fluorescence intensity at λem,max versus pH, 25°C
Procedure: pKa calculations. pKa values were calculated by plotting the fluorescence intensity at λem.,max versus the pH. The data was fit to the Hill Equation (equation 4) and the pKa taken as x1/2 as per the Hill equation. base + ((max-base))/(1 + (((x1/2)/(x)))^rate) [formula] • base = y value at minimum x-value • max = y value at maximum x-value • rate = rise rate of the curve • x1/2 = x value at which y = (base + max)/2.
The dependence of fluorescence enhancement on pH was determined for probes I-1, I-3 and I-4. Results are represented in figure 4A, 4B, and 4C respectively. Curve fitting was based on a modified Hill equation from which pKa values were calculated.

[2] = Absorption spectra and molar extinction coefficient (Beer Lambert law); type: physicochemical; settings: for λabs: maximum absorption wavelength
Procedure: (§1) All the solvents were of analytical grade. Chemicals were purchased from commercial sources. The salts used in stock solutions of metal ions were CaCl2·2H2O, CuCl2·2H2O, FeCl3·6H2O, MgCl2·6H2O, MnCl2·4H2O, ZnBr2. ^1H-NMR and ^13C-NMR were measured on a Bruker avance III-300 MHz spectrometer with chemical shifts reported in ppm (TMS as internal standard). Mass spectra were measured on a Focus GC / DSQ II spectrometer (ThermoScientific) for IC and an API 3000 spectrometer (Applied Biosystems, PE Sciex) for ES. All pH measurements were made with a Mettler Toledo pH-Meter. Fluorescence spectra were recorded on a JASCO FP-8300 spectrofluorometer. Absorption spectra were determined on a VARIAN CARY 300 Bio UV-Visible spectrophotometer. All measurements were done at a set temperature of 25°C. The purity of the dyes were checked by RP-HPLC C-18, eluant: ACN 0.1% TFA/Water 0.1 % TFA, method: 20/80 to 100/0 within 20 min. then 100/0 for 10 min. detection at λabs= 254 nm.
Molar extinction coefficient calculations. Extinction coefficients (ε) were calculated using the Beer Lambert law (equation 3) plotting optical density/absorption versus concentration for the pH probes. The gradient of the plot is equal to ε. A = εc1 [formula] • A = optical density/absorption • ε = extinction coefficient = gradient of the plot • c = concentration • 1= optical path length (1 cm)
The dependence of absorption on pH for probe I-1 was determined in a MOPS buffered aqueous solution. Results are represented in figure 2.

[3] = Fluorescence spectra, quantum yield and dynamic range; type: physicochemical; settings: for λem: excitation at 535 nm, maximum emission wavelength; for Φ: MOPS 30 mM, KCl 100 mM, reference Rhodamine 101, excitation 535 nm; for Dynamic Range: maximal value of (I-Imin)/Imin; for ΦON/ ΦOFF: ratio of quantum yields at pH 4 and pH 10
Procedure: as §1
Dynamic range. The term dynamic range refers to the maximal value of equation 1 where I is the observed fluorescence intensity and Imin is the minimum fluorescence intensity observed for that probe. The larger the dynamic range the better as it indicates good differentiation between "on" and "off' states. Dynamic Range = ((I-Imin))/(Imin) [formula]
Quantum yield calculations. The fluorescence quantum yields (Φ) were calculated from the gradient of integrated fluorescence intensity (545 to 700 nm) versus optical density. Rhodamine 101 (Φ = 1.0 in absolute ethanol) was used as a reference standard (ref) with the excitation wavelength at 535 nm. Equation 2 was used to determine the Φ values. Φ = Φref (grad.)/(grad.ref).(η^2)/(ηref^2) [formula] • Φ = quantum yield • η = refractive index of the solvent system (η (H2O) = 1.33, ηref (EtOH) = 1.36) grad. = gradient of the curve
ΦON (pH = 4) and ΦOFF (pH = 10) were calculated for each pH probe in MOPS 30 mM, KCl 100 mM.
The dependence of fluorescence intensity on pH for probe I-1 was determined in a MOPS buffered aqueous solution after excitation at 535 nm. Results are represented in figure 3.

[4] = in absolute ethanol; reference standard; cited from earlier work
CHO-K1 cells = assay: Cytotoxicity, CCK-8 cell counting kit; type: cell-based, Chinese hamster; settings: 1% Triton; positive control
Procedure: Cytotoxicity: CHO-K1 cells (20,000 per well) were seeded in 96 multiple well plates for 24 h before the experiment. Cells (40,000 per well) were incubated with the fluorescent compounds in 100 µL DMEM for 2h at 37°C. The incubation medium was replaced by 100µL fresh DMEM containing 10% of cell-counting solution (Dojindo Laboratories) and further incubated for 2h at 37°C. The absorbance was measured at 450 nm (reference at 620 nm) and was directly related to the number of living cells. Experiments were done in triplicate and repeated twice.
To determine cytotoxicity a CCK-8 cell counting kit was used. This can be bought commercially and relies upon the reduction of a highly water-soluble tetrazolium salt (WST-8). This compound is slightly yellow in color, however, upon reduction to its corresponding formazan species it becomes bright orange. The optical density of the absorbance corresponding to the orange formazan species, detected at 450nm, can be measured and correlated to the number of living cells. A decrease in optical density corresponds directly to a decrease in the quantity of formazan molecules indicating fewer living cells due to cell death/cytotoxicity. The reduction of WST-8 is achieved by exploiting the redox reactions of NAD+, a coenzyme found in all living cells. Cellular NAD+ is constantly being reduced to NADH by dehydrogenases as a natural part of a cell's metabolism. […]

[5] = Fluorescence of the ratiometric dual-fluorophore probe as a function of pH; type: physicochemical
Excerpt: • Figure 1 is a drawing schematically representing the red-emitting pH probe of the invention. • Figure 2 is a graph representing the dependence of absorption on pH in a MOPS buffered aqueous solution for compound I-1. • Figure 3 is a graph representing the dependence of fluorescence intensity on pH in a MOPS buffered aqueous solution after excitation at 535 nm, for compound I-1. • Figure 4A-4C are graphs representing the dependence of fluorescence enhancement on pH for compounds I-1 (4A), I-3 (4B) and I-4 (4C). • Figure 5 is a graph representing fluorescence intensities of compound I-1 (5 µM) in presence of a range of metal ions in a MOPS buffer (MOPS 30 mM, KCl 100 mM, pH 7.2). The concentration of cations is 10^-3 M. • Figure 6 is a graph representing CCK-8 test results for compound I-1 indicating cytotoxicity. The probe was incubated with Chinese hamster ovary cells (CHO-K1) for 2 hours at 37°C. • Figure 7 is a dose response diagram for F98 cells incubated with pH probe I-1. • Figure 8 is a graph representing the fluorescence spectrum for the dual-fluorophore I-5 (5 µM) measured in an aqueous MOPS buffered solution/MeOH, 91/9. • Figure 9 is a plot of I∼612/I439 versus pH at excitation wavelength 405 nm for compound I-5. I∼612 and I439 are the respective fluorescence intensities of the system at ∼612nm corresponding to the X-rhodamine red-emission and at 439nm corresponding to the acridone blue-emission.
The peak centred at 439 nm corresponding to emission from the acridone fluorophore and the peak centred at 612 nm to that of the X-rhodamine. The blue acridone emission is not dependent on pH while the red X-rhodamine emission is dependent on pH.
In order to visualize the intensity ratio between the two emission signals a plot of I∼612/I439 versus pH was plotted (figure 9). I∼612 and I439 are the respective fluorescence intensities of the system at ∼612 nm corresponding to the X-rhodamine red-emission and at 439 nm corresponding to the acridone blue-emission.

F98 cells = assay: Dose response by flow cytometry (probe internalization); type: cell-based, rat; settings: F98 cells incubated for two hours
Procedure: Cell calture for flow cytometry, dose response and cellular imaging: F98 and CHO-K1 cell lines (purchased from ATCC) were maintained at 37°C in 5% CO2 in DMEM/F-12 nutrient medium (Invitrogen, Cergy Pontoise, France) supplemented with 2% (v/v) heat-inactivated fetal bovine serum (Invitrogen) and 100 µg/mL streptomycine and 100 units/mL penicillin (Invitrogen).
Fluorescence Activated Cell Sorting Analyses: F98 cells were incubated with various concentrations of pH probes in DMEM/F-12 culture medium without serum at 37 °C for 2h. The cells were washed with PBS to remove excess fluorescent probe and were treated with 0.05% Trypsin-EDTA for 2 min at 37°C to detach the cells from the surface, and centrifuged at 200 g in DMEM/F-12 culture medium before suspension in PBS. Flow cytometry analyses were performed with live cells using an Accuri C6 flow cytometer (BD Biosciences, Le Pont de Claix, France). The data was obtained and analysed using CFlow Sampler (BD Biosciences). Live cells were gated by forward/side scattering for a total of 10,000 events.
Undifferentiated malignant glioma rat cells (F98) were incubated with probe I-1 for two hours at increasing concentrations and the fluorescence intensity measured. Results are represented in figure 7.

[6] = Optical properties of the second (blue) fluorophore; type: physicochemical; settings: measured in CH3CN/H2O
Excerpt: In addition to having the correct absorption and emission wavelengths, the chosen second fluorophore must feature a terminal alkyne to make it "clickable" with the azide-containing pH probe I-1. The acridone 5 was selected, having the following optical properties (measured in CH3CN/H2O): […]

[7] = 5 µM, aqueous MOPS buffered solution/MeOH, 91/9

Molecule | pKa [1] | ε ([2]; OFF, deprotonated form: pH 10) [M⁻¹ cm⁻¹] | λabs ([2]; OFF, deprotonated form: pH 10) [nm] | ε ([2]; ON, protonated form: pH 4) [M⁻¹ cm⁻¹] | λabs ([2]; ON, protonated form: pH 4) [nm] | λem ([3]; OFF, deprotonated form: pH 10) [nm] | Φ ([3]; OFF, pH 10) | Φ ([3]; ON, pH 4) | λem ([3]; ON, protonated form: pH 4) [nm] | Dynamic Range [3] | ΦON/ ΦOFF [3] | also measured
C#CCN1CCN(C(=O)c2cc(C3=c4cc5c6c(c4Oc4c3cc3c7c4CCCN7CCC3)CCC[N+]=6CCC5)ccc2O)CC1 [Compound I-4] | 7.64 | 20712 | 574 | 35109 | 580 | 600 | 0.023 | 0.798 | 601 | 98 | 35 | 
O=C(O)c1ccccc1C1=c2cc3c4c(c2Oc2c1cc1c5c2CCCN5CCC1)CCC[N+]=4CCC3.[Cl-] [Rhodamine 101] |  |  |  |  |  |  |  |  |  |  |  | Φ [4]: 1.0
Triton |  |  |  |  |  |  |  |  |  |  |  | cell death (CHO-K1 cells): total cell death
O=C(NCCCn1cc(CCCn2c3ccccc3c(=O)c3ccccc32)nn1)c1cc(C2=c3cc4c5c(c3Oc3c2cc2c6c3CCCN6CCC2)CCC[N+]=5CCC4)ccc1O [Compound I-5] |  |  |  |  |  |  |  |  |  |  |  | emission peak of the X-rhodamine [5, 7]: 612 nm; emission peak of the acridone fluorophore [5, 7]: 439 nm; I∼612/I439 ratio ([5]; excitation wavelength 405 nm, as the system was acidified): four-fold increase
[N-]=[N+]=NCCCNC(=O)c1cc(C2=c3cc4c5c(c3Oc3c2cc2c6c3CCCN6CCC2)CCC[N+]=5CCC4)ccc1O [Compound I-1] | 3.96 | 26706 | 574 | 26742 | 580 | 596 | 0.009 | 0.254 | 600 | 88 | 28 | absorbs light at ([2]; red region of the spectrum): 580 nm; fluorescence intensity of cells at increasing concentrations of probe (F98 cells): increase of fluorescence with increasing concentration of probe
C#CCCCn1c2ccccc2c(=O)c2ccccc21 |  |  |  |  |  |  |  |  |  |  |  | λabs [6]: 408 nm; λem [6]: 425 nm; FWHM ([6]; full width at half maximum): 49
C#CCOC(=O)N1CCN(C(=O)c2cc(C3=c4cc5c6c(c4Oc4c3cc3c7c4CCCN7CCC3)CCC[N+]=6CCC5)ccc2O)CC1 [Compound I-3] | 7.68 | 49298 | 575 | 72405 | 580 | 602 | 0.016 | 0.640 | 601 | 86 | 40 | 
